Key:
[1] = target: T1, EGFR L858R/T790M/C797S (BaF3-LTC cells) (Homo sapiens, UniProt P00533, C797S/L858R/T790M); test: EGFR degradation HTRF assay, BaF3-LTC cells; format: cell-based; conditions: BaF3-LTC, 16h treatment; for Dmax: maximum percentage of degradation, read-out: LTC Dmax (%); for DC50: read-out: LTC DC50
T1 construct: expressed in transfected cells; host or cells: BaF3
How it was run: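 EGFR remaining after a 16 h, 37 °C exposure (8 doses, 5-fold steps from 10 uM final, 0.2% DMSO) was quantified by HTRF antibodies in cell lysate. Percent inhibition relative to DMSO control was fitted by four-parameter logistic to give DC50; Dmax denotes maximal degradation.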

[2] = tested on: EGFR Del19/T790M/C797S (BaF3-DTC cells); test: EGFR degradation HTRF assay, BaF3-DTC cells; format: cell-based; conditions: 16h treatment; for DTC Dmax (%): maximum percentage of degradation; for DC50: read-out: DTC DC50
How it was run: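 BaF3 (WT, Del19/T790M/C797S) and HCC827 cells exposed 16 h at 37 °C, 5% CO2 to compounds in 0.2% DMSO medium, 8 doses from 10 uM top, 5-fold steps. Lysates read by HTRF (665/620 nm); degradation % vs DMSO control, DC50 from four-parameter fit, Dmax as maximal degradation.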

T1 sequence (P00533 25-1210 T790M/C797S/L858R): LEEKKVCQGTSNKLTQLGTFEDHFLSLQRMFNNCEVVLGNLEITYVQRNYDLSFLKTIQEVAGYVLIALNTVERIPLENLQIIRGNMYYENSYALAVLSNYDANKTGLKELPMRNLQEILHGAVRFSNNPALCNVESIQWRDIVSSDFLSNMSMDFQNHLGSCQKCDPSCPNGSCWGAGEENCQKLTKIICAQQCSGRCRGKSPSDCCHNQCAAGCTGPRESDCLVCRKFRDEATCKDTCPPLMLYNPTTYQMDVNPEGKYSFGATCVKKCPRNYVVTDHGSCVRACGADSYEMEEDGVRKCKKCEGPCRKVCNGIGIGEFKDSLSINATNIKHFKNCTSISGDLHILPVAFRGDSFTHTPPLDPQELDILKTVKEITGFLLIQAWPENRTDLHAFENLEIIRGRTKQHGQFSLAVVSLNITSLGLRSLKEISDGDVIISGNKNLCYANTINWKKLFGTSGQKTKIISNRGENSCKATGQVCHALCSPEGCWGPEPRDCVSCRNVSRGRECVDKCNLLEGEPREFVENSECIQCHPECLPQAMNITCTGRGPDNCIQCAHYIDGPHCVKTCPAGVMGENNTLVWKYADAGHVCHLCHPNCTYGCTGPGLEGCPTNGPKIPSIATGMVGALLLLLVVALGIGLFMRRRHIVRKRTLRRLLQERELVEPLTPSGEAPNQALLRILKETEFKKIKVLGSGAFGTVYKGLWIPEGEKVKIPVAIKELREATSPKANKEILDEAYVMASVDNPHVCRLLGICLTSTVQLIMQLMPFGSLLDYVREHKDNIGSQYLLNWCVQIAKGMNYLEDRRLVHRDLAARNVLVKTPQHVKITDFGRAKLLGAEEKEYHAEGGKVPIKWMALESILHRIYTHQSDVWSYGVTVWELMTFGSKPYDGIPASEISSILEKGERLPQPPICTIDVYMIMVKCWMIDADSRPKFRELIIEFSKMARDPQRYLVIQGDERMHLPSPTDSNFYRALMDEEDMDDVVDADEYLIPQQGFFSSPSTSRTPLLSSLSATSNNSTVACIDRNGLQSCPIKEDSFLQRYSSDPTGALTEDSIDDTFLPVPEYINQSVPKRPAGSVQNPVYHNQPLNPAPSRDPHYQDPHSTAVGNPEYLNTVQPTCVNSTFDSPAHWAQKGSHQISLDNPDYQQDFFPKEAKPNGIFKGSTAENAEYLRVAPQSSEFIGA

SMILES	Dmax [1]	DC50 [1]	DTC Dmax (%) [2]	DC50 [2]
CCc1cc(Nc2ncc(Br)c(Nc3ccc4nc(C)ccc4c3P(C)(C)=O)n2)c(OC)cc1N1CCC(N2CCC(C(=O)N3CCC(c4cc(F)c(C5CCC(=O)NC5=O)c(F)c4)CC3)CC2)CC1 (stereo not drawn) [Example 700, 3-(4-(1-(1′-(4-((5-bromo-4-((5-(dimethylphosphoryl)-2-methylquinolin-6-yl)amino)pyrimidin-2-yl)amino)-2-ethyl-5-methoxyphenyl)-[1,4′-bipiperidine]-4-carbonyl)piperidin-4-yl)-2,6-difluorophenyl)piperidine-2,6-dione]	92.4%	13.1 nM	83.8%	6.49 nM
CCc1cc(Nc2ncc(Br)c(Nc3ccc4nccnc4c3P(C)(C)=O)n2)c(OC)cc1N1CCC(N2CCN(CCc3ccc(C4CCC(=O)NC4=O)c(F)c3)[C@H](COC)C2)CC1 (stereo partly drawn) [Example 292, 3-(4-(2-((S)-4-(1-(4-((5-bromo-4-((5-(dimethylphosphoryl)quinoxalin-6-yl)amino)pyrimidin-2-yl)amino)-2-ethyl-5-methoxyphenyl)piperidin-4-yl)-2-(methoxymethyl)piperazin-1-yl)ethyl)-2-fluorophenyl)piperidine-2,6-dione]	84.2%	32.3 nM	87.11%	15.1 nM
CCc1cc(Nc2ncc(Br)c(Nc3ccc4nccnc4c3P(C)(C)=O)n2)c(OC)cc1N1CCC(N2CCN(CCc3ccc(C4CCC(=O)NC4=O)c(F)c3)[C@H](CO)C2)CC1 (stereo partly drawn) [Example 291, 3-(4-(2-((S)-4-(1-(4-((5-bromo-4-((5-(dimethylphosphoryl)quinoxalin-6-yl)amino)pyrimidin-2-yl)amino)-2-ethyl-5-methoxyphenyl)piperidin-4-yl)-2-(hydroxymethyl)piperazin-1-yl)ethyl)-2-fluorophenyl)piperidine-2,6-dione]	87.2%	23.6 nM	83.17%	7.9 nM
CCc1cc(Nc2ncc(Br)c(Nc3ccc4nc(C)ccc4c3P(C)(C)=O)n2)c(OC)cc1N1CCC(N2CCN(CCc3cc(F)c(C4CCC(=O)NC4=O)c(F)c3)CC2)CC1 (stereo not drawn) [Example 314, 3-(4-(2-(4-(1-(4-((5-bromo-4-((5-(dimethylphosphoryl)-2-methylquinolin-6-yl)amino)pyrimidin-2-yl)amino)-2-ethyl-5-methoxyphenyl)piperidin-4-yl)piperazin-1-yl)ethyl)-2,6-difluorophenyl)piperidine-2,6-dione]	87.8%	6.5 nM	91.87%	2.48 nM
COc1cc(N2CCN(C3CN(C(=O)c4cnc(C(=O)Nc5ccc(C6CCC(=O)NC6=O)cc5)cn4)C3)CC2)c(C)cc1Nc1ncc(Br)c(Nc2ccc3nccnc3c2P(C)(C)=O)n1 (stereo not drawn) [Example 723, 5-(3-(4-(4-((5-bromo-4-((5-(dimethylphosphoryl)quinoxalin-6-yl)amino)pyrimidin-2-yl)amino)-5-methoxy-2-methylphenyl)piperazin-1-yl)azetidine-1-carbonyl)-N-(4-(2,6-dioxopiperidin-3-yl)phenyl)pyrazine-2-carboxamide]	81.7%	12.1 nM	76.49%	5.67 nM
CCc1cc(Nc2ncc(Br)c(Nc3ccc4nccnc4c3P(C)(C)=O)n2)c(OC)cc1N1CCC(N2CCN(CCc3ccc(C4(C)CCC(=O)NC4=O)cc3)CC2)CC1 (stereo not drawn) [Example 280, 3-(4-(2-(4-(1-(4-((5-bromo-4-((5-(dimethylphosphoryl)quinoxalin-6-yl)amino)pyrimidin-2-yl)amino)-2-ethyl-5-methoxyphenyl)piperidin-4-yl)piperazin-1-yl)ethyl)phenyl)-3-methylpiperidine-2,6-dione]	76%	248 nM	68.21%	152 nM
CCc1cc(Nc2ncc(Br)c(Nc3ccc4nc(C)ccc4c3P(C)(C)=O)n2)c(OC)cc1N1CCC(N2CCN(CCc3ccc4c(cnn4C4CCC(=O)NC4=O)c3)CC2)CC1 (stereo not drawn) [Example 211, 3-(5-(2-(4-(1-(4-((5-bromo-4-((5-(dimethylphosphoryl)-2-methylquinolin-6-yl)amino)pyrimidin-2-yl)amino)-2-ethyl-5-methoxyphenyl)piperidin-4-yl)piperazin-1-yl)ethyl)-1H-indazol-1-yl)piperidine-2,6-dione]	91.4%	4.75 nM	94.88%	2.72 nM
CCc1cc(Nc2ncc(Br)c(Nc3ccc4nc(C)ccc4c3P(C)(C)=O)n2)c(OC)cc1N1CCC(N2CCN(CCC3CCN(c4ccc5nn(C6CCC(=O)NC6=O)cc5c4)CC3)CC2)CC1 (stereo not drawn) [Example 719, 3-(5-(4-(2-(4-(1-(4-((5-bromo-4-((5-(dimethylphosphoryl)-2-methylquinolin-6-yl)amino)pyrimidin-2-yl)amino)-2-ethyl-5-methoxyphenyl)piperidin-4-yl)piperazin-1-yl)ethyl)piperidin-1-yl)-2H-indazol-2-yl)piperidine-2,6-dione]	90.4%	72.9 nM	84.38%	30.6 nM
CCc1cc(Nc2ncc(Br)c(Nc3ccc4nc(C)ccc4c3P(C)(C)=O)n2)c(OC)cc1N1CCC(N2CCN(C(=O)C34CCC(Nc5cc(F)c(C6CCC(=O)NC6=O)c(F)c5)(CC3)C4)CC2)CC1 (stereo not drawn) [Example 699, 3-(4-((4-(4-(1-(4-((5-bromo-4-((5-(dimethylphosphoryl)-2-methylquinolin-6-yl)amino)pyrimidin-2-yl)amino)-2-ethyl-5-methoxyphenyl)piperidin-4-yl)piperazine-1-carbonyl)bicyclo[2.2.1]heptan-1-yl)amino)-2,6-difluorophenyl)piperidine-2,6-dione]	89.2%	6.06 nM	85.08%	3.04 nM
CCc1cc(Nc2ncc(Br)c(Nc3ccc4nc(C)ccc4c3P(C)(C)=O)n2)c(OC)cc1N1CCC(N2CCN(CCCOc3cc(F)c(C4CCC(=O)NC4=O)c(F)c3)CC2)CC1 (stereo not drawn) [Example 704, 3-(4-(3-(4-(1-(4-((5-bromo-4-((5-(dimethylphosphoryl)-2-methylquinolin-6-yl)amino)pyrimidin-2-yl)amino)-2-ethyl-5-methoxyphenyl)piperidin-4-yl)piperazin-1-yl)propoxy)-2,6-difluorophenyl)piperidine-2,6-dione]	90.4%	21.9 nM	82.31%	3.98 nM
CCc1cc(Nc2ncc(Br)c(Nc3ccc4nccnc4c3P(C)(C)=O)n2)c(OC)cc1N1CCC(N2CCN(C3CCN(c4ccc(C5CCC(=O)NC5=O)cc4)C3)CC2)CC1 (stereo not drawn) [Example 281, 3-(4-(3-(4-(1-(4-((5-bromo-4-((5-(dimethylphosphoryl)quinoxalin-6-yl)amino)pyrimidin-2-yl)amino)-2-ethyl-5-methoxyphenyl)piperidin-4-yl)piperazin-1-yl)pyrrolidin-1-yl)phenyl)piperidine-2,6-dione]	74.6%	63.3 nM	67.1%	43.3 nM
CCc1cc(Nc2ncc(Br)c(Nc3ccc4nccnc4c3P(C)(C)=O)n2)c(OC)cc1N1CCC(N2CCN(CC3CCN(c4cc(F)c(C5CCC(=O)NC5=O)c(F)c4)CC3)CC2)CC1 (stereo not drawn) [Example 303, 3-(4-(4-((4-(1-(4-((5-bromo-4-((5-(dimethylphosphoryl)quinoxalin-6-yl)amino)pyrimidin-2-yl)amino)-2-ethyl-5-methoxyphenyl)piperidin-4-yl)piperazin-1-yl)methyl)piperidin-1-yl)-2,6-difluorophenyl)piperidine-2,6-dione]	86.7%	41.2 nM	90.93%	10.6 nM
CCc1cc(Nc2ncc(Br)c(Nc3ccc4nccnc4c3P(C)(C)=O)n2)c(OC)cc1N1CCC(N2CCN(CCCCc3cc(F)c(C4CCC(=O)NC4=O)c(F)c3)CC2)CC1 (stereo not drawn) [Example 282, 3-(4-(4-(4-(1-(4-((5-bromo-4-((5-(dimethylphosphoryl)quinoxalin-6-yl)amino)pyrimidin-2-yl)amino)-2-ethyl-5-methoxyphenyl)piperidin-4-yl)piperazin-1-yl)butyl)-2,6-difluorophenyl)piperidine-2,6-dione]	85%	21.5 nM	93.51%	15.2 nM
CCc1cc(Nc2ncc(Br)c(Nc3ccc4ncn(C)c(=O)c4c3P(C)(C)=O)n2)c(OC)cc1N1CCC(N2CCN(C(=O)C3CN(c4ccc5c(c4)CN(C4CCC(=O)NC4=O)C5=O)C3)CC2)CC1 (stereo not drawn) [Example 712, 3-(5-(3-(4-(1-(4-((5-bromo-4-((5-(dimethylphosphoryl)-3-methyl-4-oxo-3,4-dihydroquinazolin-6-yl)amino)pyrimidin-2-yl)amino)-2-ethyl-5-methoxyphenyl)piperidin-4-yl)piperazine-1-carbonyl)azetidin-1-yl)-1-oxoisoindolin-2-yl)piperidine-2,6-dione]	88.6%	7.34 nM	91.27%	2.06 nM
CCc1cc(Nc2ncc(Br)c(Nc3ccc4nccnc4c3P(C)(C)=O)n2)c(OC)cc1N1CCC(N2CCN(C(=O)[C@H]3CCN(c4ccc5c(c4)C(=O)N(C4CCC(=O)NC4=O)C5=O)C3)CC2)CC1 (stereo partly drawn) [Example 66, 5-((S)-3-(4-(1-(4-((5-bromo-4-((5-(dimethylphosphoryl)quinoxalin-6-yl)amino)pyrimidin-2-yl)amino)-2-ethyl-5-methoxyphenyl)piperidin-4-yl)piperazine-1-carbonyl)pyrrolidin-1-yl)-2-(2,6-dioxopiperidin-3-yl)isoindoline-1,3-dione]	86.3%	11 nM	92.43%	4.19 nM
